Legend:
[1] = target: T1, ACE from the lung of rabbit (Oryctolagus cuniculus, UniProt P12822); test: Measurement of ACE inhibitory activity by Cushman and Cheung method; assay type: biochemical; conditions: substrate hippuryl-L-histidyl-L-leucine, pH 8.3, 37° C. for 30 minutes, no pre-incubation; determined by extrapolation on the graph; read-out: concentration that indicates 50% inhibition (IC50) of ACE
T1 construct: ACE used was a freeze dry product of ACE from the lung of rabbit (manufactured by Sigma); purchased Sigma; host or cells: rabbit lung tissue
T1 sequence (P12822 34-1310): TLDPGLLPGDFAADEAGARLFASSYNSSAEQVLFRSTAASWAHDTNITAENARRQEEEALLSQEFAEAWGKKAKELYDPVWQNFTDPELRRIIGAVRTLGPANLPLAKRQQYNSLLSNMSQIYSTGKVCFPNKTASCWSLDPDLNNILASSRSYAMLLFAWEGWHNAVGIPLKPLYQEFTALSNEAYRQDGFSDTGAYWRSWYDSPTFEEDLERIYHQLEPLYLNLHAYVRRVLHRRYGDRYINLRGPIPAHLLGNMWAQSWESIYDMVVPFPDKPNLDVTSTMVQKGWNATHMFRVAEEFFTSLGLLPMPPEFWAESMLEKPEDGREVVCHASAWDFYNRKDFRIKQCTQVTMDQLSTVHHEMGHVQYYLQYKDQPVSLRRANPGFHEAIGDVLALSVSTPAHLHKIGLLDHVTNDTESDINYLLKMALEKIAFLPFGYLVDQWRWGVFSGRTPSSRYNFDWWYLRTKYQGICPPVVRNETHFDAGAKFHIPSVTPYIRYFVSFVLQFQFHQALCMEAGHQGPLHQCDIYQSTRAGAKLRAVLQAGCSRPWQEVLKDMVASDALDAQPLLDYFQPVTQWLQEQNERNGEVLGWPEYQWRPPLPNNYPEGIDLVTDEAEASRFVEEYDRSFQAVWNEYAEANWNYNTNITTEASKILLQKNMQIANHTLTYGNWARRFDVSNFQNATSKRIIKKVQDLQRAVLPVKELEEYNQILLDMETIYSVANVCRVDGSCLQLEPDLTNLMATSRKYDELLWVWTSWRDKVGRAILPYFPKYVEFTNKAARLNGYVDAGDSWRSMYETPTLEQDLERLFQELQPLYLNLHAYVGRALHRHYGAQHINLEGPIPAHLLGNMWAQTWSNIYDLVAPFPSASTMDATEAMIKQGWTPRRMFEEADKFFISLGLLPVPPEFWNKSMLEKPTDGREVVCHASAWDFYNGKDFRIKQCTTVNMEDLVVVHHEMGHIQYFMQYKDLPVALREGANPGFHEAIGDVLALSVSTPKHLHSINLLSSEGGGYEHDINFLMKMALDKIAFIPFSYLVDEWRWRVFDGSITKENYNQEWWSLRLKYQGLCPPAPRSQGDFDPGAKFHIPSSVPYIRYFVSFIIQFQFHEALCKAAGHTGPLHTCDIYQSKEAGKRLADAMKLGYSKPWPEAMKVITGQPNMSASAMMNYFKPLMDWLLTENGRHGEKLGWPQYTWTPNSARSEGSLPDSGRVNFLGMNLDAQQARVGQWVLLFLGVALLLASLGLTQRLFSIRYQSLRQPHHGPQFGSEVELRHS
From the text: The separation and purification process comprises the steps of: injecting the extract solution obtained in the extraction process into a column filled with the cation exchange resin or anion exchange resin by a known method; washing the column with water and eluting the column with the aqueous electrolyte solution as the eluant; and measuring the ACE inhibitory activity of the fractions obtained to collect the fractions having the ACE inhibitory activity. Known methods such as the method of Cushman and Cheung may be used for measuring the ACE inhibitory activity.
<Measurement of ACE Inhibitory Activity>
The ACE inhibitory activity was measured as follows by Cushman and Cheung method. […]
After mixing the compositions of the reaction solution (i), (ii), (iii), and (iv), enzyme solution (v) was added to the mixed solution without pre-incubation, and the solution was allowed to react (incubate) at 37° C. for 30 minutes. […] The extract solution was evaporated to dryness using a centrifugal evaporator, and the residue was dissolved in 1 ml of water to measure the concentration of the extract by absorbance at 228 nm using a spectrophotometer. The measured absorbance was defined as ODs (ODs1, ODs2 and ODs3) for the measurements using samples solutions 1, 2 and 3, respectively. […]

[2] = Solubility (other chemical and physical properties); assay type: physicochemical; conditions: in water, dilute acid and dilute alkali
Protocol: While the novel substance of the invention is positive to the ninhydrin reaction, the reaction is suppressed by Cu^2+ ions. […] Almost no usual amino acids are detected when amino acids are detected with an automatic amino acid analyzer after decomposing the novel substance of the invention with 6N HCl at 110° C. for 16 hours, and the decomposition product has a complicated composition. The novel substance of the invention has a melting point of 275 to 280° C. and a specific rotation [α]D^23.6 of −40° (c=0.4 g/100 ml; solvent=water) and [α]D^23.6 of −34.5° (c=0.2 g/100 ml/; solvent=1N HCl).

| SMILES | IC50 [1] | solubility [2] |
| --- | --- | --- |
| N[C@H](C(=O)O)C(O)CN[C@@H](CCN1CC[C@H]1C(=O)O)C(=O)O (stereo partly drawn) [2″-hydroxynicotianamine] | 80 nM | soluble in water, dilute acid and dilute alkali |
| N[C@@H](CCN[C@@H](CCN1CC[C@H]1C(=O)O)C(=O)O)C(=O)O [nicotianamine, Nicotianamine] | 85 nM | – |
